Source: patent US20240101576A1, “HETEROCYCLIC INHIBITORS OF EGFR AND/OR HER2, FOR USE IN THE TREATMENT OF CANCER” (Scorpion Therapeutics, Inc., priority 2020, published 2024)

How the values were obtained:
Assay type in all cases: cell-based
[1] = molecular target: T1, EGFR exon 20 SVD Ins D770_N771 (Ba/F3 cells) (Homo sapiens, UniProt P00533, INS770SVD); experiment: Inhibitor activity on EGFR-dependent cell growth (CellTiter-Glo, 72 h), Ba/F3 EGFR exon 20 SVD Ins; settings: read-out: BaF3 SVD IC50
T1 construct: expressed in transfected cells; host or cells: Ba/F3 (murine pro-B cells), retroviral transduction, puromycin selection, IL3-independent pool
From the text: (§1) Example A. Inhibitor Activity on EGFR-Dependent Cell Growth
(§2) Cell lines are generated by transducing Ba/F3 cells with retroviruses containing vectors with EGFR WT, EGFR L858R, EGFR exon 19del, EGFR L858R/C797S, EGFR exon 20 NPG Ins D770_N771, EGFR exon 20 ASV Ins V769_D770, EGFR exon 20 SVD Ins D770_N771, or EGFR exon 20 FQEA Ins A763_V764 genes and a puromycin selection marker. Transduced cells are selected with puromycin for 7 days and are then be transferred into culture media without Interleukin 3 (IL3). EGFR WT cells are maintained with supplemental EGF. Surviving cells are confirmed to express EGFR by Western blot and maintained as a pool. The IC50 date were included in Table 6 and Table 7.
(§3) 1.1 Cells are harvested from flask into cell culture medium and the cell number counted.
(§4) 1.2 Cells are diluted with culture medium to the desired density and 40 μL of cell suspension is added into each well of 384-well cell culture plate and the seeding density is 800 (FQEA, exon 19del), 600 (WT, NPG, L858R/C797S), or 400 (ASV, SVD, L858R) cells/well.
(§5) 2 Compound Preparation and Treatment
(§6) 2.1 Test compounds are dissolved to 10 mM in a DMSO stock solution. 45 μL of stock solution is transferred to a 384 polypropylene plate (pp-plate). Perform 3-fold, 10-point dilution via transferring 15 μL compound into 30 μL DMSO using a TECAN (EVO200) liquid handler.
(§7) 2.2 Spin plates at room temperature at 1,000 RPM for 1 minute.
(§8) 2.3 Transfer 120 nL of diluted compound from compound source plate into the cell plate.
(§9) 2.4 After compound treatment for 72 hours, perform CTG detection for compound treatment plates as described in “Detection” section.
(§10) 3.1 Plates are removed from incubators and equilibrated at room temperature for 15 minutes.
(§11) 3.2 Thaw the CellTiter Glo reagents and allow to equilibrate to room temperature before the experiment.
(§12) 3.3 Add 40 μL of CellTiter-Glo reagent into each well (at 1:1 to culture medium). Then place the plates at room temperature for 30 min followed by reading on EnVision.
(§13) 4.1 Inhibition activity is calculated following the formula below:
(§14) % Inhibition=100×(LumHC−LumSample)/(LumHC−LumLC) • where HC is obtained from cells treated with 0.1% DMSO only; and LC is obtained from culture medium only.
(§15) 4.2 2. Calculate the IC50 by fitting the Curve using Xlfit (v5.3.1.3), equation 201.
(§16) Y=Bottom+(Top−Bottom)/(1+10^((Log IC50−X)*HillSlope))

EGFR WT (Ba/F3 cells) = molecular target: T2, EGFR WT (Ba/F3 cells) (Homo sapiens, UniProt P00533); experiment: Inhibitor activity on EGFR-dependent cell growth (CellTiter-Glo, 72 h), Ba/F3 EGFR WT; settings: read-out: BaF3 WT IC50
T2 construct: expressed in transfected cells; host or cells: Ba/F3 (murine pro-B cells), retroviral transduction, puromycin selection, maintained with EGF
From the text: as §1, §2, §3, §4, §5, §6, §7, §8, §9, §10, §11, §12, §13, §14, §15, §16

[2] = molecular target: T3, EGFR exon 20 ASV Ins V769_D770 (Ba/F3 cells) (Homo sapiens, UniProt P00533, INS769ASV); experiment: Inhibitor activity on EGFR-dependent cell growth (CellTiter-Glo, 72 h), Ba/F3 EGFR exon 20 ASV Ins; settings: read-out: BaF3 ASV IC50
T3 construct: expressed in transfected cells; host or cells: Ba/F3 (murine pro-B cells), retroviral transduction, puromycin selection, IL3-independent pool
From the text: as §1, §2, §3, §4, §5, §6, §7, §8, §9, §10, §11, §12, §13, §14, §15, §16

[3] = molecular target: T4, EGFR exon 20 FQEA Ins A763_V764 (Ba/F3 cells) (Homo sapiens, UniProt P00533, INS763FQEA); experiment: Inhibitor activity on EGFR-dependent cell growth (CellTiter-Glo, 72 h), Ba/F3 EGFR exon 20 FQEA Ins; settings: read-out: BaF3 FQEA IC50
T4 construct: expressed in transfected cells; host or cells: Ba/F3 (murine pro-B cells), retroviral transduction, puromycin selection, IL3-independent pool
From the text: as §1, §2, §3, §4, §5, §6, §7, §8, §9, §10, §11, §12, §13, §14, §15, §16

T3 sequence (P00533 with tags, fused parts or gaps INS769ASV): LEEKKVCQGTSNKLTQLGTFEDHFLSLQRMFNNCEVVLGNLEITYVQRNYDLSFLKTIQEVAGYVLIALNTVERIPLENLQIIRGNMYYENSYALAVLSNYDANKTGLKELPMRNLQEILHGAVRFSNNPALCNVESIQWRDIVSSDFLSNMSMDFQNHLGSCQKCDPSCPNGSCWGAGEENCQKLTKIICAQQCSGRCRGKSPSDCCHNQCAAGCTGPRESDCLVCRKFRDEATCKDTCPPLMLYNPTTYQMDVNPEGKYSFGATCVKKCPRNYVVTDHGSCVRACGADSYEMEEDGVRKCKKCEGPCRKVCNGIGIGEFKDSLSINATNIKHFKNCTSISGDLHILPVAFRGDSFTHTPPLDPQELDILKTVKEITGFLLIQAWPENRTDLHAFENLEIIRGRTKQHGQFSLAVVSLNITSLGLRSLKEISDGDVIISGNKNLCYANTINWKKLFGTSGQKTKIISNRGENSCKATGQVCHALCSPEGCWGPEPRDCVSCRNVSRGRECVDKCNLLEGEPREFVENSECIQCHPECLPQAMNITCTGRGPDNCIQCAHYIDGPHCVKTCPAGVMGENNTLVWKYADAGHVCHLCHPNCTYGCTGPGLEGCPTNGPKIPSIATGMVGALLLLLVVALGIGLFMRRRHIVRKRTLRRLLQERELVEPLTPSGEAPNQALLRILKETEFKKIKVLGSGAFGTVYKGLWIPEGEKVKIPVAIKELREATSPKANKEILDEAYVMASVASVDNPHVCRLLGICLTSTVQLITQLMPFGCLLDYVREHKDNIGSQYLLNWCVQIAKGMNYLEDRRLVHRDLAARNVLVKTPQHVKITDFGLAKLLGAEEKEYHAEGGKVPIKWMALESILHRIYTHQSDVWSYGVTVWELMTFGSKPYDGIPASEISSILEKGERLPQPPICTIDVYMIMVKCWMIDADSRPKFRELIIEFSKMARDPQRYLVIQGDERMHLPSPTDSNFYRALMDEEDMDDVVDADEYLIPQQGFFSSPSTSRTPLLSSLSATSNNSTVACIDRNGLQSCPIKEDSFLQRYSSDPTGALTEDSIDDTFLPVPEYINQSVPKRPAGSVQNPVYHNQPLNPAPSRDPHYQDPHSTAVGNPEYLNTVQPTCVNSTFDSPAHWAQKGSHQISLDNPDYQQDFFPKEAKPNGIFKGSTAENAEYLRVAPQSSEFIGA
T1 sequence (P00533 with tags, fused parts or gaps INS770SVD): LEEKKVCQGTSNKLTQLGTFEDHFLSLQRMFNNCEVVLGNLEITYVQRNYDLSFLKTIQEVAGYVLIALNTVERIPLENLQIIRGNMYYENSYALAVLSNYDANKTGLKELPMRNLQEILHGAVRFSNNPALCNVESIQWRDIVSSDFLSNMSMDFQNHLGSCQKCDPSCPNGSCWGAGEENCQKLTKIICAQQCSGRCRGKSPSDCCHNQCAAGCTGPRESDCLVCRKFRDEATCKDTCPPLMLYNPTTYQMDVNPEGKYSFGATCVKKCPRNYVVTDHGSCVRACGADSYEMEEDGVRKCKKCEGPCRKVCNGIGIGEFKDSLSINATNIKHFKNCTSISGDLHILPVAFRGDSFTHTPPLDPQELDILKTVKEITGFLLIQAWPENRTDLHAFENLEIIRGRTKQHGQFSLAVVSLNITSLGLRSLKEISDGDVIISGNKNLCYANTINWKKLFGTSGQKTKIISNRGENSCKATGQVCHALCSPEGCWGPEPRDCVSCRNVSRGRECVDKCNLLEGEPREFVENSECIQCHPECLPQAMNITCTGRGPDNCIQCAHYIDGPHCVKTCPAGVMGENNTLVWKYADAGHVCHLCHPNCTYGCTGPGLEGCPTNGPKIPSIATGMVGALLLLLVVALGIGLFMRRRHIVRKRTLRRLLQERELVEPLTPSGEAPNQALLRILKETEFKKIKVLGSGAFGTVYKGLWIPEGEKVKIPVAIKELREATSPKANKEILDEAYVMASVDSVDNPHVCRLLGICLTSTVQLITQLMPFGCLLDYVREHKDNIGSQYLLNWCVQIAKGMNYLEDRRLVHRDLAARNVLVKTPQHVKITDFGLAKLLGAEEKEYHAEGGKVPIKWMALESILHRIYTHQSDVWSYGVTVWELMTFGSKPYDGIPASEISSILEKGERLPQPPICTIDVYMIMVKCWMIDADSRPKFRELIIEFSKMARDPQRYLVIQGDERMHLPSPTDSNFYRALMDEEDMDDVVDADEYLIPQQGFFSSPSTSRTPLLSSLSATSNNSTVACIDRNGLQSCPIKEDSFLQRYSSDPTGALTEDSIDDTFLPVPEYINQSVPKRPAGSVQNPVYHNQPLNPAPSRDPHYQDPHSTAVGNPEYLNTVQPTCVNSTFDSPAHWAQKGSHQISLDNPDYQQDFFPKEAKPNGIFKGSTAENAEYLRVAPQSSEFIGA
T2 sequence (P00533 25-1210): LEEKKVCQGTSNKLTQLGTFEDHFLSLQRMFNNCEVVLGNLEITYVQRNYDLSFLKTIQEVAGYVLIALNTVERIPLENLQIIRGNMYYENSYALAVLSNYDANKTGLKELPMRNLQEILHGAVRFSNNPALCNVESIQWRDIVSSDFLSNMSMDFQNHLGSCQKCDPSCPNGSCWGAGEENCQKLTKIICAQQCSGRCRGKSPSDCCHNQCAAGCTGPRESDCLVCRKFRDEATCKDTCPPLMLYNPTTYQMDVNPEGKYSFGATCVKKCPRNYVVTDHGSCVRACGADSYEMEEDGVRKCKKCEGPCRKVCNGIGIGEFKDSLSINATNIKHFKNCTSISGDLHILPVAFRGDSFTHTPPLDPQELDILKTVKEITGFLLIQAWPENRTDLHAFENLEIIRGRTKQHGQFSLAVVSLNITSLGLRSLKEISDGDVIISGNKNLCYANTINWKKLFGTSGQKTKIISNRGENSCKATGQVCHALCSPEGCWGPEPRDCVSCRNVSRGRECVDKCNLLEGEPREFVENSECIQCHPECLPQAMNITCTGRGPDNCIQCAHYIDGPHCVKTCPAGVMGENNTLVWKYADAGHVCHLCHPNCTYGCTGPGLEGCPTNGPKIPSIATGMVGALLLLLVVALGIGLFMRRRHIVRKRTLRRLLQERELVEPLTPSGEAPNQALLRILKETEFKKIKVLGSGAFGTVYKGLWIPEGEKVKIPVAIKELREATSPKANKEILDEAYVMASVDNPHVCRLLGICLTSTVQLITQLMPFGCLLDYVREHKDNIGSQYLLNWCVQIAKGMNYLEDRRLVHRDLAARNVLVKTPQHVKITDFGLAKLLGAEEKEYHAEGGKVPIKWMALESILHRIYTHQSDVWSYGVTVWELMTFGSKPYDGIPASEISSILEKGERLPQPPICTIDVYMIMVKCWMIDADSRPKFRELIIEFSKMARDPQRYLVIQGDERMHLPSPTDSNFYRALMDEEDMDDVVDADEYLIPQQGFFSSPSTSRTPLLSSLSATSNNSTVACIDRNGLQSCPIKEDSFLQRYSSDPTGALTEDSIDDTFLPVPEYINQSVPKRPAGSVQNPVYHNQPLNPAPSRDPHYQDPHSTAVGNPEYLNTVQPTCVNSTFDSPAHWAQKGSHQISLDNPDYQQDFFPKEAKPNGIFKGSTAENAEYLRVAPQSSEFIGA
T4 sequence (P00533 with tags, fused parts or gaps INS763FQEA): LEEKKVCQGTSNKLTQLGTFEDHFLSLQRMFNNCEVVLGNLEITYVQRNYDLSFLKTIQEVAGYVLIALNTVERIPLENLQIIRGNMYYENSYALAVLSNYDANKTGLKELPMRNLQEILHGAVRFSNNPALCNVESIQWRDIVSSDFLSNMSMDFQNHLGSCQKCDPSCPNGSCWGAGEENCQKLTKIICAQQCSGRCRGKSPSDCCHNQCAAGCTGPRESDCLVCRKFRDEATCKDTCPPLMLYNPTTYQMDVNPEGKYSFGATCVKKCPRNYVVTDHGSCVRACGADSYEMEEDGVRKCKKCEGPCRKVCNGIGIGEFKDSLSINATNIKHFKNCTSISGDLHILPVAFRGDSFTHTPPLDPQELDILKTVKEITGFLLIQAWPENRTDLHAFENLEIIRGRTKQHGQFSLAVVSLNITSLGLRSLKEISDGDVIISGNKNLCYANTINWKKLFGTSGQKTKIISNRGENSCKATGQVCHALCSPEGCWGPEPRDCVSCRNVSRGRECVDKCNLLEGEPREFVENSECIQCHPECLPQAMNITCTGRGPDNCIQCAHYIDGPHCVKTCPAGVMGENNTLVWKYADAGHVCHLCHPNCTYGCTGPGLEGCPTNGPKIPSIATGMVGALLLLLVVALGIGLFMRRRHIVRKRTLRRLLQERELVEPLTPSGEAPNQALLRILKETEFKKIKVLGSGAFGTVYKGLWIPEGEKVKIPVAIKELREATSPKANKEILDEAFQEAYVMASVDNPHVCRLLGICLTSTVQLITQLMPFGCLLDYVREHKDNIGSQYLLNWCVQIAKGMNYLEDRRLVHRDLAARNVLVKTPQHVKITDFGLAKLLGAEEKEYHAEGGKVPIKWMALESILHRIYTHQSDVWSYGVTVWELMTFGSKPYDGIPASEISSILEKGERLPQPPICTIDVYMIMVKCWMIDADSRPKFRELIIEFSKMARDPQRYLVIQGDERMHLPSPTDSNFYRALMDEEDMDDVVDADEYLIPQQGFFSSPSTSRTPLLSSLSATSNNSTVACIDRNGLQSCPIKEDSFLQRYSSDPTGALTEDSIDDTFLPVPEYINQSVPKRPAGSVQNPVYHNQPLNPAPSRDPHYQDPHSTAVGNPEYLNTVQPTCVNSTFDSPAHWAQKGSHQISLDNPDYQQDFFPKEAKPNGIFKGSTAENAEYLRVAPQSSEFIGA

IC50 [1] | IC50 (EGFR WT (Ba/F3 cells)) | IC50 [2] | IC50 [3] | Structure (SMILES)
100 to 1000 nM | > 1000 nM | 100 to 1000 nM | 100 to 1000 nM | COc1c(Cl)cccc1Nc1c(-c2ccncc2F)[nH]c2c1C(=O)NC[C@H]2CC(N)=O [Compound 489]
< 100 nM | < 100 nM | < 100 nM | < 100 nM | COC[C@H]1CNC(=O)c2c1[nH]c(-c1ccnc3ccc(OC)nc13)c2Nc1cccc(Cl)c1OC [Compound 764, (7S)-3-[(3-chloro-2-methoxyphenyl)amino]-2-(6-methoxy-1,5-naphthyridin-4-yl)-7-(methoxymethyl)-1H,5H,6H,7H-pyrrolo[3,2-c]pyridin-4-one]
< 100 nM | > 1000 nM | < 100 nM | < 100 nM | COc1c(Cl)cccc1Nc1c(-c2ccncc2F)[nH]c2c1C(=O)NC[C@H]2CC(C)(C)O [compound 495, (7R)-3-[(3-chloro-2-methoxyphenyl)amino]-2-(3-fluoropyridin-4-yl)-7-(2-hydroxy-2-methylpropyl)-1H,5H,6H,7H-pyrrolo[3,2-c]pyridin-4-one]
< 100 nM | < 100 nM | < 100 nM | < 100 nM | COc1c(Cl)cccc1Nc1c(-c2ccnc3ccc(OC4CCOCC4)nc23)[nH]c2c1C(=O)NCC2 [compound 740, 3-[(3-chloro-2-methoxyphenyl)amino]-2-[6-(oxan-4-yloxy)-1,5-naphthyridin-4-yl]-1H,5H,6H,7H-pyrrolo[3,2-c]pyridin-4-one]
100 to 1000 nM | 100 to 1000 nM | < 100 nM | 100 to 1000 nM | COc1c(Cl)cccc1Nc1c(-c2ccnc3ccc(OCC4CCC4)nc23)[nH]c2c1C(=O)NCC2 [compound 756, 3-[(3-chloro-2-methoxyphenyl)amino]-2-[6-(cyclobutylmethoxy)-1,5-naphthyridin-4-yl]-1H,5H,6H,7H-pyrrolo[3,2-c]pyridin-4-one]
< 100 nM | < 100 nM | < 100 nM | < 100 nM | COc1ccc2nccc(-c3[nH]c4c(c3Nc3cccc(Cl)c3OC)C(=O)NC[C@H]4CCF)c2n1 [Compound 745, (R)-3-((3-chloro-2-methoxyphenyl)amino)-7-(2-fluoroethyl)-2-(6-methoxy-1,5-naphthyridin-4-yl)-1,5,6,7-tetrahydro-4H-pyrrolo[3,2-c]pyridin-4-one]
100 to 1000 nM | > 1000 nM | 100 to 1000 nM | 100 to 1000 nM | COc1c(Cl)cccc1Nc1c(-c2ccncc2F)[nH]c2c1C(=O)NC[C@@]21CCN(C)C1 [compound 816]
< 100 nM | < 100 nM | < 100 nM | < 100 nM | COc1c(Cl)cccc1Nc1c(-c2ccnc3ccc(OC4(C)CC4)nc23)[nH]c2c1C(=O)NC[C@@H]2C (single isomer, unassigned) [Compound 775]
< 100 nM | > 1000 nM | < 100 nM | 100 to 1000 nM | COc1c(Cl)cccc1Nc1c(-c2ccnc(Nc3cnoc3C)n2)[nH]c2c1C(=O)NCC2 [compound 510, 3-[(3-chloro-2-methoxyphenyl)amino]-2-{2-[(5-methyl-1,2-oxazol-4-yl)amino]pyrimidin-4-yl}-1H,5H,6H,7H-pyrrolo[3,2-c]pyridin-4-one]
< 100 nM | 100 to 1000 nM | < 100 nM | < 100 nM | COc1c(Cl)cccc1Nc1c(-c2ccnc3ccc(OC4COC4)nc23)[nH]c2c1C(=O)NCC21CC1 [Compound 777, 3′-[(3-chloro-2-methoxyphenyl)amino]-2′-[6-(oxetan-3-yloxy)-1,5-naphthyridin-4-yl]-5′,6′-dihydro-1′H-spiro[cyclopropane-1,7′-pyrrolo[3,2-c]pyridin]-4′-one]
> 1000 nM | > 1000 nM | 100 to 1000 nM | > 1000 nM | COc1c(Cl)cccc1Nc1c(-c2ccnc(NC[C@H]3COCCO3)n2)[nH]c2c1C(=O)NCC2 [compound 723, 3-[(3-chloro-2-methoxyphenyl)amino]-2-(2-[[(2S)-1,4-dioxan-2-ylmethyl]amino]pyrimidin-4-yl)-1H,5H,6H,7H-pyrrolo[3,2-c]pyridin-4-one]
> 1000 nM | > 1000 nM | > 1000 nM | > 1000 nM | COCC[C@@H]1CNC(=O)c2c(Nc3cccc(Cl)c3OC)c(-c3ccncn3)n(C)c21 (single isomer, unassigned) [Compound 796]
< 100 nM | 100 to 1000 nM | < 100 nM | < 100 nM | COc1c(Cl)cccc1Nc1c(-c2ccnc3ccc(OCC4CC4)nc23)[nH]c2c1C(=O)NCC2 [compound 755, 3-[(3-chloro-2-methoxyphenyl)amino]-2-[6-(cyclopropylmethoxy)-1,5-naphthyridin-4-yl]-1H,5H,6H,7H-pyrrolo[3,2-c]pyridin-4-one]
< 100 nM | 100 to 1000 nM | < 100 nM | < 100 nM | COc1c(Cl)cccc1Nc1c(-c2ccnc3ccc(OCCCN4CCOCC4)nc23)[nH]c2c1C(=O)NCC2 [compound 503, 3-[(3-chloro-2-methoxyphenyl)amino]-2-{6-[3-(morpholin-4-yl)propoxy]-1,5-naphthyridin-4-yl}-1H,5H,6H,7H-pyrrolo[3,2-c] pyridin-4-one]
< 100 nM | 100 to 1000 nM | < 100 nM | < 100 nM | COc1ncc2nccc(-c3[nH]c4c(c3Nc3cccc(F)c3OC)C(=O)NCC43CC3)c2n1 [compound 379]
> 1000 nM | > 1000 nM | > 1000 nM | > 1000 nM | COc1c(F)cccc1Nc1c(-c2ccnc(-c3cnn(C)c3)c2)[nH]c2c1C(=O)NCC2 [compound 259]
> 1000 nM | > 1000 nM | > 1000 nM | > 1000 nM | COc1c(Cl)cccc1Nc1c(-c2ccnc(NC3CCOCC3)n2)[nH]c2c1C(=O)NCC2 [compound 708, 3-((3-chloro-2-methoxyphenyl)amino)-2-(2-((tetrahydro-2H-pyran-4-yl)amino)pyrimidin-4-yl)-1,5,6,7-tetrahydro-4H-pyrrolo[3,2-c]pyridin-4-one]
> 1000 nM | > 1000 nM | > 1000 nM | > 1000 nM | COc1c(Cl)cccc1Nc1c(-c2ccncc2F)[nH]c2c1C(=O)NC[C@H]2CCN1CCOCC1 [compound 484, (7R)-3-[(3-chloro-2-methoxyphenyl)amino]-2-(3-fluoropyridin-4-yl)-7-[2-(morpholin-4-yl)ethyl]-1H,5H,6H,7H-pyrrolo[3,2-c]pyridin-4-one]
100 to 1000 nM | > 1000 nM | 100 to 1000 nM | > 1000 nM | COc1c(Cl)cccc1Nc1c(-c2ccnc(C(F)F)n2)[nH]c2c1C(=O)NCC2 [compound 472, 3-[(3-chloro-2-methoxyphenyl)amino]-2-[2-(difluoromethyl)pyrimidin-4-yl]-1H,5H,6H,7H-pyrrolo[3,2-c]pyridin-4-one]
100 to 1000 nM | > 1000 nM | 100 to 1000 nM | > 1000 nM | COc1c(Cl)cccc1Nc1c(-c2ccnc(NC[C@@H]3COCCO3)n2)[nH]c2c1C(=O)NCC2 [compound 724, 3-[(3-chloro-2-methoxyphenyl)amino]-2-[2-[(1,4-dioxan-2-ylmethyl)amino]pyrimidin-4-yl]-1H,5H,6H,7H-pyrrolo[3,2-c]pyridin-4-one]
< 100 nM | 100 to 1000 nM | < 100 nM | < 100 nM | COc1ncc2nccc(-c3[nH]c4c(c3Nc3cc(F)cc(Cl)c3OC)C(=O)NCC4)c2n1 [Compound 792, 3-[(3-chloro-5-fluoro-2-methoxyphenyl)amino]-2-[2-methoxypyrido[3,2-d]pyrimidin-8-yl]-1H,5H,6H,7H-pyrrolo[3,2-c]pyridin-4-one]
